From patent publication US12117442B2, “Methods of screening compounds” (Depixus SAS, priority 2022, dated 2024)
Where two headings read alike, the source gives them in different places.

Experiments:
[1] = target: HIV-1 TAR; conditions: known binder of HIV-1 TAR; cited from earlier work
[2] = test system: HIV-1 TAR; test: Ramp experiments (unfolding/refolding force) on HIV-TAR RNA; format: binding; conditions: for effect on unfolding force: adding increasing concentrations
From the text: In a ramp experiment, the nucleic acid (e.g., RNA) molecules are subjected to multiple cycles of slowly increasing and/or decreasing force, and the value at which the molecule unfolds or refolds can be determined from a sudden change in the bead's position. Upon binding, a ligand can cause a change in the unfolding or refolding force if it stabilizes or destabilizes the RNA structure.
A 59-nucleotide HIV-TAR RNA flanked by RNA/DNA duplexes was attached to a paramagnetic bead on one side and the flowcell on the other end.
To investigate whether the platform can distinguish between different KD, three additional small molecules were used that are known to bind to the HIV-1 TAR structure with varying binding affinities (FIG. 2C-2E). […] Above 100 μM of Kanamycin, there is a widening of the force distribution (FIG. 2D).

[3] = target: WT preQ1 riboswitch; test: Ramp analysis, WT preQ1 riboswitch; format: binding, Bsu; conditions: fit of high-force fraction
Experimental: The WT preQ1 riboswitch was used as a reference (FIG. 4B). […] The peak around the reference force decreased while there was an increase in the proportion of cycles that have a higher unfolding force. The higher force cycles can represent the binding of the ligand and formation of the pseudoknot. The fraction of cycles that have an unfolding force greater than 95% confidence interval of each bead was calculated in control conditions (FIG. 4B). […] This is similar to the KD calculated in Example 2 from the constant force experiment at 9.6 pN.

[4] = target: preQ1 riboswitch; conditions: comparison result obtained by smFRET; cited from earlier work
[5] = target: preQ1 riboswitch C15U mutant; test: Ramp analysis, C15U mutant preQ1 riboswitch; format: binding, Bsu; conditions: fit of high-force fraction
From the text: (§1) The preQ1 riboswitch has several point substitutions that modify affinity to the preQ1 ligand (FIG. 4A).
(§2) Having established a reference point, the four different mutants were used to study the effect on preQ1 binding (FIG. 4C-4G). […] The difference could be due to the Mg^2+ used. Nonetheless, the platform was able to distinguish a 3-fold differences in KD, which is less apparent in platforms like SPR or fluorescent titration.

[6] = test system: preQ1 riboswitch; test: Long constant-force experiments at 9.6 pN on preQ1 riboswitch; format: binding, Bsu
Experimental: To study the molecular dynamics of the preQ1 riboswitch using the platform described herein, wild type (WT) Bsu riboswitch was attached to the flowcell as described in Example 1. A step constant-force experiments were then performed, where the molecule is kept at a constant force for a given amount of time before increasing the force in a stepwise manner from lower to higher forces (FIG. 3B). The z position of the bead was recorded and at forces closer to equilibrium, the molecule transitioned between the folded and unfolded state (FIG. 3B). The force was maintained constant for five minutes at the equilibrium force (where the molecule spends as much time in the unfolded versus folded state) and various concentrations of the preQ1 ligand were tested. The binding of the ligand to the structure (arrows shown in representative binding analysis curve of FIG. 3C) was monitored in real time and at the level of the single molecule. A binding which causes the structure to remain in the folded state for more than 3 seconds was recorded. The kon calculated by dividing the number of events observed when the ligand is bound to the RNA structure over the time of experiment at a given concentration of the ligand. The RNA is considered bound to a ligand (here preQ1 ligand) when it stays folded for longer than […]. By testing different concentrations, the kon of the molecule was measured (FIG. 3D). […] For each force, the raw data was fitted to two different states using Hidden Markov model (FIG. 3B), and the fraction of time for which each molecule is present at the folded state was calculated over the time at each force step. The fraction was plotted against the force for each step, and the equilibrium force (inflection point) was determined for each molecule when the molecule spent 50% of the time at each state (FIG. 3F). The half-width of the force can also be determined by calculating 1/e (e=Euler's number) on either side of the inflection point, which indicates the force range where the molecule is bistable and transitions from folded and unfolded state (FIG. 3F). […]

[7] = target: preQ1 riboswitch U7C + C15U mutant; test: Ramp analysis, U7C + C15U double mutant preQ1 riboswitch; format: binding, Bsu; conditions: fit of high-force fraction
From the text: as §1, §2

[8] = test system: preQ1 riboswitch A10G mutant; conditions: A10G versus wt; basis for selecting the mutant; cited from earlier work
[9] = test system: preQ1 riboswitch A10G mutant; test: Ramp analysis, A10G mutant preQ1 riboswitch; format: binding, Bsu
From the text: as §1
With this mutant, the whole distribution was shifted towards higher forces, instead of having two different fractions (FIG. 4E). […] The constant-force step experiment also reflected the changes in the equilibrium force in micromolar range (FIG. 4F).

[10] = test system: preQ1 riboswitch C15U mutant; conditions: C15U versus wt; basis for selecting the mutant; cited from earlier work
[11] = test system: preQ1 riboswitch U6C mutant; test: Ramp analysis, U6C mutant preQ1 riboswitch; format: binding, Bsu; conditions: no KD from fitting maximum density or high-force density
From the text: as §1

[12] = test system: preQ1 riboswitch U7C + C15U mutant; conditions: U7C + C15U versus wt; basis for selecting the mutant; cited from earlier work
[13] = test system: wild type (WT) Bsu preQ1 riboswitch; test: Step constant-force experiments on WT preQ1 riboswitch; format: binding
From the text: In a Constant-Force Experiment, the nucleic acid molecules are subjected to the same force for a certain amount of time before it is increased in a stepwise manner. The equilibrium force is the point at which the molecule spends equal time in both folded and unfolded states. Ligand binding at this force can cause a change in the dynamics of folding and unfolding.
To study the molecular dynamics of the preQ1 riboswitch using the platform described herein, wild type (WT) Bsu riboswitch was attached to the flowcell as described in Example 1. A step constant-force experiments were then performed, where the molecule is kept at a constant force for a given amount of time before increasing the force in a stepwise manner from lower to higher forces (FIG. 3B). The z position of the bead was recorded and at forces closer to equilibrium, the molecule transitioned between the folded and unfolded state (FIG. 3B). The force was maintained constant for five minutes at the equilibrium force (where the molecule spends as much time in the unfolded versus folded state) and various concentrations of the preQ1 ligand were tested. The binding of the ligand to the structure (arrows shown in representative binding analysis curve of FIG. 3C) was monitored in real time and at the level of the single molecule. A binding which causes the structure to remain in the folded state for more than 3 seconds was recorded. The kon calculated by dividing the number of events observed when the ligand is bound to the RNA structure over the time of experiment at a given concentration of the ligand. The RNA is considered bound to a ligand (here preQ1 ligand) when it stays folded for longer than 3.3 seconds. By testing different concentrations, the kon of the molecule was measured (FIG. 3D). The koff is inverse of the length of time when the RNA structure is bound by a ligand. Accordingly, a duration, when the ligand left the RNA structure (star) as the RNA structure went back to rapid transition between folded and unfolded state, was observed. The duration of this folded state allows to measure the koff of the ligand (FIG. 3E). The kon is dependent on the ligand concentration whereas the koff is not. For each force, the raw data was fitted to two different states using Hidden Markov model (FIG. 3B), and the fraction of time for which each molecule is present at the folded state was calculated over the time at each force step. The fraction was plotted against the force for each step, and the equilibrium force (inflection point) was determined for each molecule when the molecule spent 50% of the time at each state (FIG. 3F). The half-width of the force can also be determined by calculating 1/e (e=Euler's number) on either side of the inflection point, which indicates the force range where the molecule is bistable and transitions from folded and unfolded state (FIG. 3F). The transition frequency was calculated for each of the force steps recorded and plotted again the normalized force, corresponding to the equilibrium force for each bead in control conditions (FIG. 3G).
For the subsequent experiments, 1 mM Mg^2+ was added in all buffers.
To study the effect of preQ1 ligand binding to the riboswitch, constant-force step experiments were performed with increasing concentration of preQ1 ligand (FIG. 3B).

[14] = test system: preQ1 riboswitch U6C mutant; conditions: U6C versus WT; basis for selecting the mutant; cited from earlier work
[15] = test system: pre-miR-21; test: Dicer binding to pre-miR-21 (unfolding force); conditions: 20 nM full-length Dicer without magnesium
Experimental: (§3) Pre-miR-21 and pre-miR-21-bp mutants are used as substrates to measure the effect of Dicer on the folding kinetics. Dicer is a double-strand-specific ribonuclease that binds the pre-miRNAs and cleaves them to generate mature miRNAs. Adding 20 nM of full-length Dicer without magnesium causes the binding of the protein to the structure without further processing of the structure. […] Therefore, the platform described herein is useful for detecting interaction between an RNA scaffold and an RNA binding protein.

[16] = test system: pre-miR-21-bp mutant; test: Dicer binding to pre-miR-21-bp mutant; conditions: 20 nM full-length Dicer without magnesium; mutation abolishes bulge
Experimental: as §3

[17] = fit of changes in unfolding force, ramp experiments, read-out: calculated KD
[18] = 1 μM preQ1 ligand, lesser extent than 1 mM Mg^2+
[19] = increasing concentrations of preQ1, 1 mM Mg^2+ in buffers

Compound: Cc1ccc2c(N)c(C(=O)Nc3cccc(C(F)(F)F)c3)sc2n1 [Compound 4, 3-Amino-6-methyl-N-(3-(trifluoromethyl)phenyl)thieno[2,3-b]pyridine-2-carboxamide]
- Kd [1]: 2.4 µM
- effect on unfolding force [2]: decrease in the unfolding force
- Kd [2, 17]: 2.99 µM

Compound: CCN[C@@H]1C[C@H](N)[C@@H](O[C@H]2OC(CN)=CC[C@H]2N)[C@H](O)[C@H]1O[C@H]1OC[C@](C)(O)[C@H](NC)[C@H]1O [Netilmicin]
- Kd [1]: 1.4 µM
- Ki [1]: ~14 µM
- effect on unfolding force [2]: increase in the unfolding force
- Kd [2, 17]: ~13.4 µM

Compound: N=C(N)NCCC[C@H](N)C(N)=O [argininamide]
- effect on unfolding and refolding force ([2]; 10 mM): increased both the unfolding and refolding force
- effect on unfolding force [2]: increased the unfolding force
- Kd ([2]; fit of normalized force at maximum unfolding distribution for each bead, read-out: KD): 5430 µM

Compound: NCc1c[nH]c2nc(N)[nH]c(=O)c12 [preQ1]
- Kd [3]: 0.0878 µM
- Kd [4]: 0.134 µM
- Kd [5]: 0.00535 µM
- Kon ([6]; 9.6 pN, fit of attachment rate): 0.0015 ^−1 nM^−1
- Koff ([6]; 9.6 pN, one per mean time of ligand-bound event): 0.11 s⁻¹
- Kd ([6]; calculated by Koff/Kon): 0.073 µM
- Kd [7]: 0.0177 µM
- Effect of mutation on binding affinity [8]: Decrease versus wt
- increase in KD compared with WT ([9]; A10G versus WT): ~400 fold
- Kd ([9]; A10G, fit of maximum unfolding force density for each bead): 34.7 µM
- Effect of mutation on binding affinity [10]: Increase versus wt
- ligand binding [11]: abolished the ligand binding
- Effect of mutation on binding affinity [12]: Greatly Increase versus wt
- effect of ligand and cation together ([13]; 1 μM preQ1 ligand plus 1 mM Mg^2+): additive effect
- effect on transition frequency [13, 18]: decreased transition frequency
- effect on unfolding equilibrium force [13, 18]: increased the unfolding equilibrium force
- Kd ([13]; fit of equilibrium force at each concentration): 0.162 µM
- effect on equilibrium force [13, 19]: increased equilibrium force
- effect on transition frequency [13, 19]: decreased the transition frequency
- Effect of mutation on binding affinity [14]: Abolished versus WT

Compound: [Mg+2] [Mg^2+]
- effect on transition frequency at equilibrium force ([13]; 1 mM Mg^2+ alone, no ligand): transition frequency decreased
- effect on unfolding equilibrium force ([13]; 1 mM Mg^2+ alone, no ligand): increased the unfolding equilibrium force

Compound: Dicer: double-strand-specific ribonuclease that binds the pre-miRNAs and cleaves them to generate mature miRNAs
- effect of binding on unfolding force [15]: increase in the unfolding force
- binding to mutant [16]: does not occur
